In PubChem BioAssay AID1918940 (Molecular Pharmacology Branch, DTP, NCI, 2023):

Test system: NCI-H211 complex spheroid viability
Experiment: Anticancer human tumor NCI-H211 cell line growth inhibition [LSD1];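 note: luminescent viability read after seven days of drug exposure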;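 for viability, T/C: 100% = DMSO vehicle control viability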
Conditions: for IC50: curve of first compound; for viability, T/C: stronger effect = lower value
Text: Multicellular complex tumor spheroid response to LSD1 Inhibitor Iadademstat in combination with a variety of drugs and investigational agents in selected tumor cell lines
The current study was undertaken to assess response to LSD1 inhibitors in combination with standard-of-care drugs and investigational agents in solid tumor complex spheroid models as well as in the K-562 leukemia. Complex spheroids include a stromal component modeled by human endothelial cells (HUVEC) and fibroblasts modeled by human mesenchymal stem cells (MSCs). The concentration ranges selected for each drug and investigational agent were based upon clinically achievable concentrations if the clinical Cmax of the agent was known.
Compounds. The drugs and investigational agents used in this study are listed on Table 1. All of the agents used, including staurosporine (NSC755774) and gemcitabine (NSC613327), were obtained from the Developmental Therapeutics Program, NCI. FDA-approved anticancer drugs are available from the NCI at http://dtp.nci.nih.gov/branches/dscb/oncology_drugset_explanation.html. Drugs and investigational agents were >95% pure by proton nuclear magnetic resonance (NMR) and liquid chromatography/mass spectrometry (LC/MS). Stock solutions were prepared at 400x in DMSO, stored at -70 degrees C, and diluted in fresh medium prior to their use. The final concentration of DMSO in cell culture wells never exceeded 0.25% (v/v). The FDA-approved anticancer drug set is available from the Developmental Therapeutics Program at https://dtp.cancer.gov/organization/dscb/obtaining/available_plates.htm. All drugs and investigational agents were tested over a range starting from a high concentration at or near the clinical Cmax and decreasing in half-log increments. If the clinical Cmax for an agent had not been determined, the highest concentration tested was 10 microM.
Cell Lines. The patient-derived cancer cell (PDC) lines: 292921-168-R-J2-PDC, K24384-001-R-PDC, and 521955-158-R2-J5-PDC pancreatic carcinomas, 556581-035-R-J1 ovarian carcinoma, 324938-238-R-J1-PDC, 855422-203-R-J1-PDC and 883617-216-R-J1-PDC urothelial bladder carcinomas, 743489-274-T-PDC renal cell carcinoma, 138582-R-J1 Merkel cell tumor, K60290-347-R-J1 and K57222-313-R-J1-PDC glioblastomas, 653999-131-R-J2-PDC, LG0703-F948-PDC, and 349418-098-R-PDC non-small cell lung carcinomas, 885512-296-R-J2-PDC, 171881-019-R-J1-PDC breast carcinomas and 186277-243-T-J2-PDC and 233499-124-R-J2-PDC colon carcinomas were obtained from the NCI Patient-Derived Models Repository (PDMR, https://pdmr.cancer.gov). The established cell lines NCI/ADR-RES (RRID:CVCL_14520 and OVCAR-5 (RRID:CVCL_1628) ovarian carcinomas, 786-O (RRID:CVCL_1051) and A498 (RRID:CVCL_A498) renal cell carcinoma, NCI-H211 (ATCC, cat. CRL-5824; RRID:CVCL_1529), NCI-H196 (ATCC, cat. CRL-5823, RRID:CVCL_1509), SW 1271 (ATCC, cat. CRL-2177, RRID:CVCL_1716) and NCI-H1876 (ATCC, cat. CRL-5902, RRID:CVCL_1503) small cell lung carcinomas, MDA-MB-231 (RRID:CVCL_0062) and MDA-MB-468 (RRID:CVCL_0419)breast carcinomas (10-12). Pooled donor human umbilical vein endothelial cells (HUVEC, Lonza, cat. CC-2519) and human mesenchymal stem cells (hMSC, Lonza, cat. PT-2501) were purchased from Lonza (Walkersville, MD).
Cell Culture. All cells were maintained in an incubator at 37 degrees C and 5% CO2 with 95% humidity. The PDC lines were cultured according to standard operating procedures established by the NCI PDMR (https://pdmr.cancer.gov). Briefly all PDCs were thawed and cultured in Matrigel-coated flasks prepared with a working solution of 1X Ham's F-12 nutrient mix, without supplementation (Invitrogen, Waltham, MA, cat. 11765054), 100 U/mL penicillin-streptomycin (Invitrogen, cat. 15140122), and 2.5% Matrigel (Corning Inc., Corning, NY, cat. 354248) for the first three passages. […]

[1] = second compound 0.1 µM, first compound 0.00316 µM
[2] = second compound 0.1 µM, first compound 0.01 µM
[3] = second compound 0.1 µM, first compound 0.0316 µM
[4] = second compound 0.1 µM, first compound 0.1 µM
[5] = second compound 0.1 µM, first compound 0.316 µM
[6] = second compound 0.1 µM, first compound 1 µM
[7] = second compound 0.316 µM, first compound 0.00316 µM
[8] = second compound 0.316 µM, first compound 0.01 µM
[9] = second compound 0.316 µM, first compound 0.0316 µM
[10] = second compound 0.316 µM, first compound 0.1 µM
[11] = second compound 0.316 µM, first compound 0.316 µM
[12] = second compound 0.316 µM, first compound 1 µM
[13] = second compound 1 µM, first compound 0.00316 µM
[14] = second compound 1 µM, first compound 0.01 µM
[15] = second compound 1 µM, first compound 0.0316 µM
[16] = second compound 1 µM, first compound 0.1 µM
[17] = second compound 1 µM, first compound 0.316 µM
[18] = second compound 1 µM, first compound 1 µM
[19] = second compound 3.16 µM, first compound 0.00316 µM
[20] = second compound 3.16 µM, first compound 0.01 µM
[21] = second compound 3.16 µM, first compound 0.0316 µM
[22] = second compound 3.16 µM, first compound 0.1 µM
[23] = second compound 3.16 µM, first compound 0.316 µM
[24] = second compound 3.16 µM, first compound 1 µM
[25] = second compound 10 µM, first compound 0.00316 µM
[26] = second compound 10 µM, first compound 0.01 µM
[27] = second compound 10 µM, first compound 0.0316 µM
[28] = second compound 10 µM, first compound 0.1 µM
[29] = second compound 10 µM, first compound 0.316 µM
[30] = second compound 10 µM, first compound 1 µM
[31] = second compound 0.1 µM, first compound 0.000316 µM
[32] = second compound 0.1 µM, first compound 0.001 µM
[33] = second compound 0.316 µM, first compound 0.000316 µM
[34] = second compound 0.316 µM, first compound 0.001 µM
[35] = second compound 1 µM, first compound 0.000316 µM
[36] = second compound 1 µM, first compound 0.001 µM
[37] = second compound 3.16 µM, first compound 0.000316 µM
[38] = second compound 3.16 µM, first compound 0.001 µM
[39] = second compound 10 µM, first compound 0.000316 µM
[40] = second compound 10 µM, first compound 0.001 µM

Row | SMILES | IC50 (second compound 0.1 µM) [nM] | IC50 (second compound 0.316 µM) [nM] | IC50 (second compound 1 µM) [nM] | IC50 (second compound 3.16 µM) [nM] | IC50 (second compound 10 µM) [nM] | viability, T/C [1] [%] | viability, T/C [2] [%] | viability, T/C [3] [%] | viability, T/C [4] [%] | viability, T/C [7] [%] | viability, T/C [8] [%] | viability, T/C [9] [%] | viability, T/C [10] [%] | viability, T/C [13] [%] | viability, T/C [15] [%] | viability, T/C [16] [%] | viability, T/C [21] [%] | viability, T/C [22] [%] | viability, T/C [27] [%] | viability, T/C [28] [%] | also measured
1 | COc1cc(Nc2ncc3c(n2)-c2ccc(Cl)cc2C(c2c(F)cccc2OC)=NC3)ccc1C(=O)O + NC1CCC(NC2CC2c2ccccc2)CC1 | < 3.16 | < 3.16 | < 3.16 | < 3.16 | < 3.16 | 34 | 8.09 | 2.59 | 2.93 | 34.6 | 4.21 | 3.27 | 2.5 | 47.9 | 3.16 | 6.76 | 2.4 | 2.55 | 1.29 | 1.19 | viability, T/C [5]: 2.92%; viability, T/C [6]: 2.47%; viability, T/C [11]: 2.51%; viability, T/C [12]: 2.35%; viability, T/C [14]: 5.71%; viability, T/C [17]: 2.71%; viability, T/C [18]: 1.94%; viability, T/C [19]: 31.8%; viability, T/C [20]: 4.91%; viability, T/C [23]: 1.47%; viability, T/C [24]: 2.19%; viability, T/C [25]: 22.4%; viability, T/C [26]: 2.05%; viability, T/C [29]: 1.28%; viability, T/C [30]: 1.12%
2 | CC(C)CC(NC(=O)C(Cc1ccccc1)NC(=O)c1cnccn1)B(O)O (stereo not given) + NC1CCC(NC2CC2c2ccccc2)CC1 | 2 | 2.05 | 1.79 | 1.68 | < 0.316 | 29.3 | 2.16 | 3.13 | 6.8 | 35.8 | 1.76 | 0.22 | 0.13 | 32.7 | 0.23 | 2.46 | 0.97 | 0.14 | 0.17 | 0.14 | viability, T/C [31]: 73.8%; viability, T/C [32]: 88.6%; viability, T/C [33]: 70.9%; viability, T/C [34]: 76%; viability, T/C [35]: 62.5%; viability, T/C [36]: 72.7%; viability, T/C [14]: 1.57%; viability, T/C [37]: 64.3%; viability, T/C [38]: 72.3%; viability, T/C [19]: 27.4%; viability, T/C [20]: 1.43%; viability, T/C [39]: 44.9%; viability, T/C [40]: 45.3%; viability, T/C [25]: 14.2%; viability, T/C [26]: 0.55%
3 | Cn1ncnc1C1c2n[nH]c(=O)c3cc(F)cc(c23)NC1c1ccc(F)cc1 (stereo not given) + NC1CC1c1ccc(-c2cccc(O)c2)cc1 | 1.85 | 1.66 | 1.05 | 1.08 | 1.02 | 36.7 | 6.78 | 5.16 | 5.28 | 28.5 | 6.02 | 5.46 | 4.84 | 23.6 | 4.68 | 4.9 | 5.03 | 5.16 | 5.22 | 4.95 | viability, T/C [31]: 64.8%; viability, T/C [32]: 65.8%; viability, T/C [33]: 79.3%; viability, T/C [34]: 66.8%; viability, T/C [35]: 51.5%; viability, T/C [36]: 51.6%; viability, T/C [14]: 6.16%; viability, T/C [37]: 71.6%; viability, T/C [38]: 50.8%; viability, T/C [19]: 26%; viability, T/C [20]: 6.88%; viability, T/C [39]: 48.5%; viability, T/C [40]: 52.2%; viability, T/C [25]: 19.9%; viability, T/C [26]: 6.25%
4 | CC(C)c1c(-c2ccccc2)nc2c(C#N)c[nH]n2c1=O + NC1CCC(NC2CC2c2ccccc2)CC1 | > 10000 | > 10000 | > 10000 | > 10000 | < 31.6 | – | – | 74.2 | 74.7 | – | – | 84.8 | 81.7 | – | 69.9 | 80.7 | 46.6 | 56 | 35.2 | 37.4 | viability, T/C [5]: 72%; viability, T/C [6]: 81.5%; viability, T/C (second compound 0.1 µM, first compound 3.16 µM): 65.8%; viability, T/C (second compound 0.1 µM, first compound 10 µM): 85.8%; viability, T/C [11]: 72.4%; viability, T/C [12]: 72.8%; viability, T/C (second compound 0.316 µM, first compound 3.16 µM): 67.2%; viability, T/C (second compound 0.316 µM, first compound 10 µM): 75.5%; viability, T/C [17]: 77.3%; viability, T/C [18]: 60.5%; viability, T/C (second compound 1 µM, first compound 3.16 µM): 62.3%; viability, T/C (second compound 1 µM, first compound 10 µM): 70%; viability, T/C [23]: 61.6%; viability, T/C [24]: 65.5%; viability, T/C (second compound 3.16 µM, first compound 3.16 µM): 62%; viability, T/C (second compound 3.16 µM, first compound 10 µM): 60.5%; viability, T/C [29]: 32.7%; viability, T/C [30]: 34.9%; viability, T/C (second compound 10 µM, first compound 3.16 µM): 32.2%; viability, T/C (second compound 10 µM, first compound 10 µM): 32.8%
